How the values were obtained:
Type in all cases: cell-based
[1] = target: T1, murine CCR2 (Mus musculus, UniProt P51683); assay: Functional β-arrestin recruiting test with human MCP-1 (B-2a); settings: U2OS β-arrestin cell line transfected with murine CCR2; agonist human MCP-1 at EC50 (about 3 nM); in some cases means of several determinations
T1 construct: host or cells: U2OS β-arrestin cell line
Description: The antagonistic action of test substances on CCR2 was determined in a β-arrestin test. The PathHunter β-arrestin GPCR test system (DiscoveRx Corporation, Ltd.) is a cell-based functional method for detecting binding of β-arrestin to an activated receptor. The molecular basis is a […] complementation measured by the enzymatic conversion of a chemiluminescent substrate. The test cell used was a U2OS β-arrestin cell line transfected with murine CCR2 (93-0543C3, DiscoveRx Corporation, Ltd.).
The test substances were dissolved in dimethyl sulphoxide (DMSO) at a concentration of 10 mM and serially diluted with DMSO in steps of 1:3.16 for a 10-point dose/activity analysis. According to the desired test concentrations, the substances were pre-diluted in Tyrode with 2 mM CaCl2 and 0.05% BSA.
The cells, cultivated in MEM Eagle (supplemented with 10% FCS, 50 U/ml of penicillin, 50 μg/ml of streptomycin, 250 μg/ml of hygromycin and 500 μg/ml of geniticin), were sown at 2000 cells/25 μl in 384 well, μCLEAR/black cell culture plates from Greiner (#781092) and incubated at 37° C. for 24 h. The sowing medium consisted of Opti-MEM (supplemented with 1% FCS, 50 U/ml of penicillin and 50 μg/ml of streptomycin). The cells were pre-incubated for 10 min with 10 μl of the test substances diluted in buffer, and 10 μl of agonist solution [human MCP-1 (PeproTech, #300-04) in Tyrode with 0.05% BSA) were then added. The human MCP-1 was employed at the concentration which corresponds to the EC50 which had been determined in a preliminary test (usually about 3 nM). After 90 min of incubation at 37° C., the solution was removed, and recruitment of β-arrestin to CCR2 was detected with the aid of the PathHunter detection reagent (93-001, DiscoveRx Corporation, Ltd.) according to the instructions of the manufacturer. Luminescence was measured after an incubation time of 60 min using a proprietary luminescence imaging measuring instrument. The molar concentration of the test substance which caused 50% inhibition of the MCP-1 effect (IC50) was determined using a 4-parameter logistic function (Hill function).

[2] = target: T2, human CCR2 (Homo sapiens, UniProt P41597); assay: Functional Ca2+ release test (B-1); settings: Chem-1 cell line transfected with human CCR2; 50% inhibition of the MCP-1 effect, MCP-1 at EC50 (about 5 nM); in some cases means of several determinations
T2 construct: host or cells: Chem-1 cell line
T2 sequence (P41597 1-360 isoform P41597-2): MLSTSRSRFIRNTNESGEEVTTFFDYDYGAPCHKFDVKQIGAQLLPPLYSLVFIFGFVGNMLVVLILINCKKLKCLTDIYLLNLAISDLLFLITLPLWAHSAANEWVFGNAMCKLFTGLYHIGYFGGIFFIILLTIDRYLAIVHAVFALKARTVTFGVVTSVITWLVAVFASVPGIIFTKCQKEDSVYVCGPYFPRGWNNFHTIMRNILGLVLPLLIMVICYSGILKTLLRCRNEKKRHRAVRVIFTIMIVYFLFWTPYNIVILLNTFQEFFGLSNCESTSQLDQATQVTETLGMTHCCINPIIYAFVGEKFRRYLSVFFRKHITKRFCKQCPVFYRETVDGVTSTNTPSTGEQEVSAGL
In short: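 Chem-1 cells expressing human CCR2, loaded with Fluo-4 for 60 min at 37° C, were preincubated 10 min with compound (10-point, 1:3.16 dilutions), then stimulated with MCP-1 at its predetermined EC50 (about 5 nM). Ca2+ release was monitored for 120 s. IC50 came from a 4-parameter Hill fit.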

[3] = target: T1, murine CCR2; assay: Functional β-arrestin recruiting test with murine MCP-1 (B-2b); settings: U2OS β-arrestin cell line transfected with murine CCR2; agonist murine MCP-1; in some cases means of several determinations
In short: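 In a PathHunter β-galactosidase complementation assay, U2OS cells expressing murine CCR2 were preincubated 10 min with compound (10-point, 1:3.16 dilutions), then challenged with murine MCP-1 at its predetermined EC50 for 90 min at 37 °C. Luminescence was read after 60 min, and IC50 was fitted with a 4-parameter Hill function.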

T1 sequence (P51683 whole entry): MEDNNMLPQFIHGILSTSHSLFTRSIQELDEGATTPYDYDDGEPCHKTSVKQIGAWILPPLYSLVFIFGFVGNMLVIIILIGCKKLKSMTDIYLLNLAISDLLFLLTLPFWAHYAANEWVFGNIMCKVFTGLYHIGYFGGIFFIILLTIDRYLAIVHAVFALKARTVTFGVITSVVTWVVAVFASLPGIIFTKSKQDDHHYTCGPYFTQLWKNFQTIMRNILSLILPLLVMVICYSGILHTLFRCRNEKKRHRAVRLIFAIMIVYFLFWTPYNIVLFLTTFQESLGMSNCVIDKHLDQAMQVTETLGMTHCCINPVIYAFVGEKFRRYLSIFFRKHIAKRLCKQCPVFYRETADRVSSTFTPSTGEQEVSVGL

Row | Compound | IC50 [1] | IC50 [2] | IC50 [3]
1 | 5-(3,4-dichlorobenzyl-2-(2-methoxypyridin-3-yl)-6-(trifluoromethyl)pyrimidin-4(3H)-one [Example 41] | 410 nM | 4.8 nM | –
2 | O=c1[nH]c(-c2ccccn2)nc(C(F)(F)F)c1Cc1ccc(Cl)c(Cl)c1 [Example 1, 5-(3,4-Dichlorobenzyl)-2-(pyridin-2-yl)-6-(trifluoromethyl)pyrimidin-4(3H)-one] | 110 nM | 3.5 nM | –
3 | O=c1[nH]c(-c2ncc(C(F)(F)F)cc2Cl)nc(C(F)(F)F)c1Oc1ccc(Cl)c(Cl)c1 [Example 6, 2-[3-chloro-5-(trifluoromethyl)pyridin-2-yl]-5-(3,4-dichlorophenoxy)-6-(trifluoromethyl)pyrimidin-4(3H)-one] | 150 nM | 4.8 nM | –
4 | O=c1[nH]c(-c2ccc(Cl)cn2)nc(C(F)(F)F)c1Oc1ccc(Cl)c(Cl)c1 [Example 8, 2-(5-chloropyridin-2-yl)-5-(3,4-dichlorophenoxy)-6-(trifluoromethyl)pyrimidin-4(3H)-one] | 180 nM | 3.9 nM | –
5 | Cc1cccc(-c2nc(C(F)(F)F)c(Oc3ccc(Cl)c(Cl)c3)c(=O)[nH]2)n1 [Example 9, 5-(3,4-dichlorophenoxy)-2-(6-methylpyridin-2-yl)-6-(trifluoromethyl)pyrimidin-4(3H)-one] | 180 nM | 13 nM | –
6 | O=c1[nH]c(-c2cccc(Cl)n2)nc(C(F)(F)F)c1Oc1ccc(Cl)c(Cl)c1 [Example 10, 2-(6-chloropyridin-2-yl)-5-(3,4-dichlorophenoxy)-6-(trifluoromethyl)pyrimidin-4(3H)-one] | 140 nM | 15 nM | –
7 | O=c1[nH]c(-c2ncccc2Cl)nc(C(F)(F)F)c1Oc1cccc(Cl)c1 [Example 12, 5-(3-chlorophenoxy)-2-(3-chloropyridin-2-yl)-6-(trifluoromethyl)pyrimidin-4(3H)-one] | 100 nM | 75 nM | –
8 | O=c1[nH]c(-c2ncccc2Cl)nc(C(F)(F)F)c1Oc1ccc(F)c(F)c1 [Example 13, 2-(3-chloropyridin-2-yl)-5-(3,4-difluorophenoxy)-6-(trifluoromethyl)pyrimidin-4(3H)-one] | 120 nM | 56 nM | –
9 | O=c1[nH]c(-c2ncc(F)cc2F)nc(C(F)(F)F)c1Cc1ccc(Cl)c(Cl)c1 [Example 18, 5-(3,4-dichlorobenzyl)-2-(3,5-difluoropyridin-2-yl)-6-(trifluoromethyl)pyrimidin-4(3H)-one] | 140 nM | 14 nM | –
10 | Cc1ccc(-c2nc(C(F)(F)F)c(Cc3ccc(Cl)c(Cl)c3)c(=O)[nH]2)nc1 [Example 19] | 300 nM | 9.7 nM | –
11 | O=c1[nH]c(-c2cccc(Cl)n2)nc(C(F)(F)F)c1Cc1ccc(Cl)c(Cl)c1 [Example 20, 2-(6-chloropyridin-2-yl)-5-(3,4-dichlorobenzyl)-6-(trifluoromethyl)pyrimidin-4(3H)-one] | 380 nM | 12 nM | –
12 | O=c1[nH]c(-c2ncc(C(F)(F)F)cc2Cl)nc(C(F)(F)F)c1Cc1ccc(Cl)c(Cl)c1 [Example 21, 2-[3-chloro-5-(trifluoromethyl)pyridin-2-yl]-5-(3,4-dichlorobenzyl)-6-(trifluoromethyl)pyrimidin-4(3H)-one] | 230 nM | 28 nM | –
13 | O=c1[nH]c(-c2ccc(Cl)cn2)nc(C(F)(F)F)c1Cc1ccc(Cl)c(Cl)c1 [Example 22, 2-(5-chloropyridin-2-yl)-5-(3,4-dichlorobenzyl)-6-(trifluoromethyl)pyrimidin-4(3H)-one] | 400 nM | 7 nM | –
14 | Cc1cccc(-c2nc(C(F)(F)F)c(Cc3ccc(Cl)c(Cl)c3)c(=O)[nH]2)n1 [Example 25, 5-(3,4-dichlorobenzyl)-2-(6-methylpyridin-2-yl)-6-(trifluoromethyl)pyrimidin-4(3H)-one] | 790 nM | 33 nM | –
15 | COc1cnccc1-c1nc(C(F)(F)F)c(Cc2ccc(Cl)c(Cl)c2)c(=O)[nH]1 [Example 26] | 190 nM | 3.2 nM | –
16 | O=c1[nH]c(-c2cccnc2)nc(C(F)(F)F)c1Cc1ccc(Cl)c(Cl)c1 [Example 27, 5-(3,4-dichlorobenzyl)-2-(pyridin-3-yl)-6-(trifluoromethyl)pyrimidin-4(3H)-one] | 480 nM | 35 nM | –
17 | O=c1[nH]c(-c2ccncc2)nc(C(F)(F)F)c1Cc1ccc(Cl)c(Cl)c1 [Example 28, 5-(3,4-dichlorobenzyl)-2-(pyridin-4-yl)-6-(trifluoromethyl)pyrimidin-4(3H)-one] | 1000 nM | 49 nM | –
18 | COc1cc(-c2nc(C(F)(F)F)c(Cc3ccc(Cl)c(Cl)c3)c(=O)[nH]2)ccn1 [Example 29, 5-(3,4-dichlorobenzyl)-2-(2-methoxypyridin-4-yl)-6-(trifluoromethyl)pyrimidin-4(3H)-one] | 2600 nM | 92 nM | –
19 | O=c1[nH]c(-c2cccc(O)n2)nc(C(F)(F)F)c1Oc1ccc(Cl)c(C(F)(F)F)c1 [Example 30, 5-[4-chloro-3-(trifluoromethyl)phenoxy]-2-(6-hydroxypyridin-2-yl)-6-(trifluoromethyl)pyrimidin-4(3H)-one] | 530 nM | 140 nM | –
20 | O=c1[nH]c(-c2cccc(O)n2)nc(C(F)(F)F)c1Oc1ccc(Cl)c(Cl)c1 [Example 31, 5-(3,4-dichlorophenoxy)-2-(6-hydroxypyridin-2-yl)-6-(trifluoromethyl)pyrimidin-4(3H)-one] | 1400 nM | 150 nM | –
21 | O=c1[nH]c(-c2cc(O)ccn2)nc(C(F)(F)F)c1Oc1ccc(Cl)c(Cl)c1 [Example 32, 5-(3,4-dichlorophenoxy)-2-(4-hydroxypyridin-2-yl)-6-(trifluoromethyl)pyrimidin-4(3H)-one] | 1100 nM | 51 nM | –
22 | O=c1[nH]c(-c2cc(O)ccn2)nc(C(F)(F)F)c1Oc1ccc(Cl)c(C(F)(F)F)c1 [Example 33, 5-[4-chloro-3-(trifluoromethyl)phenoxy]-2-(4-hydroxypyridin-2-yl)-6-(trifluoromethyl)pyrimidin-4(3H)-one] | 650 nM | 46 nM | –
23 | O=c1[nH]c(-c2ncccc2F)nc(C(F)(F)F)c1Cc1ccc(Cl)c(C(F)(F)F)c1 [Example 34, 5-[4-chloro-3-(trifluoromethyl)benzyl]-2-(3-fluoropyridin-2-yl)-6-(trifluoromethyl)pyrimidin4(3H)-one] | 110 nM | 2.7 nM | –
24 | O=c1[nH]c(-c2cccc(Cl)n2)nc(C(F)(F)F)c1Oc1ccc(Cl)c(C(F)(F)F)c1 [Example 36, 2-(6-chloropyridin-2-yl)-5-[4-chloro-3-(trifluoromethyl)phenoxy]-6-(trifluoromethyl)pyrimidin-4(3H)-one] | 140 nM | 6.2 nM | –
25 | C[S+]([O-])c1cccnc1-c1nc(C(F)(F)F)c(Oc2ccc(Cl)c(Cl)c2)c(=O)[nH]1 (stereo not shown) [Example 267, 5-(3,4-Dichlorophenoxy)-2-[3-(methylsulphinyl)pyridin-2-yl]-6-(trifluoromethyl)pyrimidin-4(3H)-one] | – | 103 nM | 679 nM
26 | CS(=O)(=O)c1cccnc1-c1nc(C(F)(F)F)c(Oc2ccc(Cl)c(Cl)c2)c(=O)[nH]1 [Example 268, 5-(3,4-Dichlorophenoxy)-2-[3-(methylsulphonyl)pyridin-2-yl]-6-(trifluoromethyl)pyrimidin-4(3H)-one] | – | 5.8 nM | 484 nM
